Assay results from paper PMC9669269 (Journal of Computational Chemistry, 2022).

What was measured:
Experiment in all cases: HTRF displacement of biotinylated H4Ac4 peptide
Type in all cases: binding
CaBD2 (CaBdf1 BD2) = target: T1, CaBD2 (CaBdf1 BD2) (Candida albicans, UniProt Q5A4W8)
T1 sequence (Q5A4W8 386-491): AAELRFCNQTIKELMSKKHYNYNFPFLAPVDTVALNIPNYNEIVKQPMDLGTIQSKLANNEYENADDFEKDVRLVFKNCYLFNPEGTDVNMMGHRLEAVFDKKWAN

CaBD1 (CaBdf1 BD1) = target: T2, CaBD1 (CaBdf1 BD1) (Candida albicans, UniProt Q5A4W8)
T2 sequence (Q5A4W8 193-327): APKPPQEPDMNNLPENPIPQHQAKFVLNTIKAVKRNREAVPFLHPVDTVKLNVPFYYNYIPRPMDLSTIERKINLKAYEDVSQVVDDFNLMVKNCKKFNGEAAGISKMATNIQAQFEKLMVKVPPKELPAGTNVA

hBrd4 BD1 = hBrd4 BD1 (Homo sapiens, UniProt O60885)
hBrd4 BD2 = hBrd4 BD2 (Homo sapiens, UniProt O60885)

SMILES	IC50 (CaBD2 (CaBdf1 BD2)) [µM]	IC50 (CaBD1 (CaBdf1 BD1)) [µM]	IC50 (hBrd4 BD1) [µM]	IC50 (hBrd4 BD2) [µM]
Cc1cccn2c(Nc3ccc(Br)cc3)c(-c3ccc(O)cc3)nc12 [1i, 4‐(3‐([4‐Bromophenyl]amino)‐8‐methylimidazo[1,2‐a]pyridin‐2‐yl)phenol]	4.35 ± 0.63	> 20	> 20	12.8 ± 3.2
Cc1ccc(Nc2c(-c3ccc(O)cc3)nc3c(C)cccn23)c(O)c1 [1d, 2‐((2‐(4‐Hydroxyphenyl)‐8‐methylimidazo[1,2‐a]pyridin‐3‐yl)amino)‐5‐methylphenol]	9.74 ± 0.19	> 20	> 20	> 20
Cc1ccc(Nc2c(-c3ccc(O)c(F)c3)nc3c(C)cccn23)cc1 [1a, 2‐Fluoro‐4‐(8‐methyl‐3‐(p‐tolylamino)imidazo[1,2‐a]pyridin‐2‐yl)phenol]	6.3 ± 2.78	> 20	14.8 ± 6.9	8.7 ± 1.8
Cc1ccc(Nc2c(-c3ccc(O)cc3)nc3c(Cl)cccn23)cc1 [1e, 4‐(8‐Chloro‐3‐(p‐tolylamino)imidazo[1,2‐a]pyridin‐2‐yl)phenol]	1.5 ± 0.42	> 20	> 20	16 ± 1.2
Cc1ccc(Nc2c(-c3ccc(O)cc3)nc3c(Br)cccn23)cc1 [1f, 4‐(8‐Bromo‐3‐(p‐tolylamino)imidazo[1,2‐a]pyridin‐2‐yl)phenol]	0.75 ± 0.25	> 20	> 20	> 20
Cc1ccc(Nc2c(-c3ccc(O)cc3)nc3c(I)cccn23)cc1 [1g, 4‐(8‐Iodo‐3‐(p‐tolylamino)imidazo[1,2‐a]pyridin‐2‐yl)phenol]	1.01 ± 0.19	> 20	> 20	> 20
Cc1ccc(Nc2c(-c3ccc(O)cc3)nc3c(C)cccn23)cc1O [1c, 5‐((2‐(4‐Hydroxyphenyl)‐8‐methylimidazo[1,2‐a]pyridin‐3‐yl)amino)‐2‐methylphenol]	0.78 ± 0.15	> 20	> 20	> 20
Cc1ccc(Nc2c(-c3ccc(O)cc3)nc3c(C)cccn23)cc1 [compound 1, imidazopyridine (1)]	3.9 ± 0.35	> 20	> 20	> 20
Cc1cccn2c(Nc3ccc(N)cc3)c(-c3ccc(O)cc3)nc12 [1h, 4‐(3‐([4‐Aminophenyl]amino)‐8‐methylimidazo[1,2‐a]pyridin‐2‐yl)phenol]	0.37 ± 0.09	> 20	> 20	2.24 ± 0.65
Cc1cccn2c(Nc3ccc([N+](=O)[O-])cc3)c(-c3ccc(O)cc3)nc12 [1j, 4‐(8‐Methyl‐3‐([4‐nitrophenyl]amino)imidazo[1,2‐a]pyridin‐2‐yl)phenol]	4.39 ± 1.04	> 20	> 20	> 20
Cc1ccc(Nc2c(-c3ccc(O)cc3F)nc3c(C)cccn23)cc1 [1b, 3‐Fluoro‐4‐(8‐methyl‐3‐(p‐tolylamino)imidazo[1,2‐a]pyridin‐2‐yl)phenol]	5.22 ± 2.12	> 20	> 20	> 20
